In data set [1] the test system is Mus musculus. Kind of data set: Inhibition of BACE1 in TASTPM mouse assessed as reduced brain Abeta42 at 250 mg/kg, po bid after 5 days. In kind it is functional. As to conditions: 120 h.
The subject of data set [2] is Mus musculus. Kind of data set: Inhibition of BACE1 in TASTPM mouse assessed as reduced brain Abeta40 at 250 mg/kg, po bid after 5 days. In kind it is functional. To be noted: 120 h.
The target in data set [3] is Beta-secretase 1 (Homo sapiens) (UniProt P56817). Description: Inhibition of human recombinant BACE1 using MBP-C12Swe as substrate by FRET assay.
Sequence of Beta-secretase 1 (Homo sapiens) (P56817 whole entry): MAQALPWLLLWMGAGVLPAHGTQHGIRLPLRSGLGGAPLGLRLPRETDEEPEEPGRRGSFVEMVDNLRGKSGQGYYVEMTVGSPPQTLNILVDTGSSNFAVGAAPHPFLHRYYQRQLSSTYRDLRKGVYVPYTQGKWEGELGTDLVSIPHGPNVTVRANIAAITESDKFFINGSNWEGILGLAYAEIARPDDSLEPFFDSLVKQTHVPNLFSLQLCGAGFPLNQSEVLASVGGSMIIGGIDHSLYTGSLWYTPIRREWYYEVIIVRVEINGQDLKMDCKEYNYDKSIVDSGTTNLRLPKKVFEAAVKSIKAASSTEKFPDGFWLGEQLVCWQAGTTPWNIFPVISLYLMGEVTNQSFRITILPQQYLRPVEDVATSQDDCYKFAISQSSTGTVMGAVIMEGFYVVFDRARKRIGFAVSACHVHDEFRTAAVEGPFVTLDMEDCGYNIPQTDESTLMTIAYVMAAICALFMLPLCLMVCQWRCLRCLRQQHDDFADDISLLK
In data set [4] the test system is Homo sapiens. Kind of data set: Inhibition of BACE1 in alzheimer's disease patient assessed as reduction of plasma Abeta40 level at 90 mg/kg after 7 hrs. In kind it is functional.
The subject of data set [5] is Homo sapiens. Kind of data set: Inhibition of BACE1 in alzheimer's disease patient assessed as reduction of plasma Abeta40 level at 90 mg/kg after 24 hrs. In kind it is functional.
The subject of data set [6] is Canis familiaris. Description: Inhibition of BACE1 in beagle dog assessed as reduced plasma Abeta level at 5 mg/kg, po after 4 to 12 hrs. In kind it is functional. As to conditions: Canis lupus familiaris.
Data set [7] deals with Canis familiaris. Kind of data set: Inhibition of BACE1 in beagle dog assessed as reduced CSF Abeta level at 5 mg/kg, po after 3 hrs. In kind it is functional. To be noted: Canis lupus familiaris.
Data set [8] relates to Canis familiaris. Description: Inhibition of BACE1 in beagle dog assessed as reduced CSF Abeta level at 5 mg/kg, po after 9 hrs. In kind it is functional. To be noted: Canis lupus familiaris.
Data set [9] can be described thus: Half life in beagle dog at 5 mg/kg, po. As to conditions: in vivo. Also on record: dose 5 mg/kg, route oral. In kind it is ADME, organism-based, Canis lupus familiaris.
Data set [10] has as its system Brain. Description: Drug uptake in mouse brain at 100 mg/kg, po. To be noted: in vivo. Also on record: dose 100 mg/kg, route oral. In kind it is ADME, organism-based.
The nature of data set [11]: Plasma concentration in beagle dog at 5 mg/kg, po after 1 hr. In kind it is ADME, organism-based, Canis lupus familiaris. On the set-up: dose 5 mg/kg, route oral.
The subject of data set [12] is Brain. Kind of data set: Drug uptake in mouse brain at 10 mg/kg, po. As to conditions: in vivo. In kind it is ADME, organism-based. On the set-up: dose 10 mg/kg, route oral.
The test system of data set [13] is Brain. Description: Drug uptake in mouse brain at 30 mg/kg, po. In kind it is ADME, organism-based. On the set-up: dose 30 mg/kg, route oral. As to conditions: in vivo.
Another data set is filed under the species Sus scrofa. Description: Inhibition of pig gastric mucosa pepsin.
In a further data set the target is T1, Renin (Homo sapiens) (UniProt P00797).
T1 sequence (whole entry): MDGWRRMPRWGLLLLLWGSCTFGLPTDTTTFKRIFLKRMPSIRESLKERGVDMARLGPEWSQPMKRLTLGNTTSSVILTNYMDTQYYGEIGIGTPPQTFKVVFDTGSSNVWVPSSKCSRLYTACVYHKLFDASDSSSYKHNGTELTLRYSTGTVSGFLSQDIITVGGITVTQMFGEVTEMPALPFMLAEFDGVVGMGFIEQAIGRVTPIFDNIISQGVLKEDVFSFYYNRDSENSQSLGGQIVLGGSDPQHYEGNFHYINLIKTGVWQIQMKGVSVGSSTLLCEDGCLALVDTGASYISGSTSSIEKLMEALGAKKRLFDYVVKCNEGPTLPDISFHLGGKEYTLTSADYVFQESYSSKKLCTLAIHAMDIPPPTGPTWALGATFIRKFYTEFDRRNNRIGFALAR
Description: Inhibition of recombinant renin (unknown origin).

Data set [14] deals with Cathepsin D (Homo sapiens) (UniProt P07339). Description: Inhibition of human liver Cathepsin D.
Sequence of Cathepsin D (Homo sapiens) (P07339 65-162 limits assumed): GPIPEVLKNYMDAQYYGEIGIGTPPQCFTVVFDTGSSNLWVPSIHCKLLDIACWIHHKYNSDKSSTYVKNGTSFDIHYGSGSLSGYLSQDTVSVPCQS
Sequence of Cathepsin D (Homo sapiens) (P07339 169-412 limits assumed): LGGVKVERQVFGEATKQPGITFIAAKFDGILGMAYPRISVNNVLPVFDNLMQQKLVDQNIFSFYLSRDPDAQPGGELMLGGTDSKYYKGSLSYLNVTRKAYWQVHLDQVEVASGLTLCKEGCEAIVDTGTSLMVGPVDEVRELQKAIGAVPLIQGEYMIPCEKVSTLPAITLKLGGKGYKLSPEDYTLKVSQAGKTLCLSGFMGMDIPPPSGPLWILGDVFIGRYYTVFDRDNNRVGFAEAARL
Data set [15] deals with T2, Beta-secretase 2 (Homo sapiens) (UniProt Q9Y5Z0).
T2 sequence (whole entry): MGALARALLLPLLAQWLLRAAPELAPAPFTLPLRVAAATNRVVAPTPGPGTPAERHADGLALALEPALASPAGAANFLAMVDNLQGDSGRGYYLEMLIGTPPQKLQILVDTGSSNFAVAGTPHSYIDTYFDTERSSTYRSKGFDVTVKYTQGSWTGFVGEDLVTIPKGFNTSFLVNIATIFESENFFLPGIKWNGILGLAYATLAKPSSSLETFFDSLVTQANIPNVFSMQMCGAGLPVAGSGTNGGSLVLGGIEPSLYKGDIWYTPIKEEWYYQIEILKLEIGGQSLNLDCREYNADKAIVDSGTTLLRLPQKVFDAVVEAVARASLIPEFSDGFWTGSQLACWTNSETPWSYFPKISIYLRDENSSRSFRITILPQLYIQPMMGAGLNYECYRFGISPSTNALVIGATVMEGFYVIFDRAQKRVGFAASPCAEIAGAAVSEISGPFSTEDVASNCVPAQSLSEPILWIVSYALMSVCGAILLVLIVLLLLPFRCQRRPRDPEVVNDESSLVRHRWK
Description: Inhibition of human BACE2 by mcaFRET assay.

For data set [16], the target named is Beta-secretase 1 (Homo sapiens) (UniProt P56817). Kind of data set: Inhibition of BACE1 in HEK293 cells. In kind it is cell-based.
The subject of data set [17] is Homo sapiens. Kind of data set: Inhibition of BACE1 in alzheimer's disease patient assessed as reduction of CSF Abeta level at 35 mg/kg. In kind it is functional.
In data set [18] the test system is Homo sapiens. Kind of data set: Inhibition of BACE1 in alzheimer's disease patient assessed as reduction of CSF Abeta level at 15 mg/kg. In kind it is functional.
Data set [19] addresses Beta-secretase 1 (Homo sapiens) (UniProt P56817). Description: Inhibition of BACE1 (unknown origin) in a cell-based assay.
In data set [20] the target is T2, Beta-secretase 2 (Homo sapiens). Description: Inhibition of BACE2 (unknown origin).

What is called inhibition in vivo is the share of the control response that was lost under treatment. What is called half-life is the time needed for the level to fall by half in the phase considered.

For the compound `CCNc1cc(C(=O)N[C@@H](Cc2ccccc2)[C@H](O)CNCc2cccc(C(F)(F)F)c2)cc(N2CCCCS2(=O)=O)c1`, the inhibition in vivo at 250 mg/kg worked out at 23% in the data set with Mus musculus [1] and 18% in the data set with Mus musculus [2].
For `Cc1ccc2c(c1)CSC(N)=N2`, the INH in data set [3] is 790 µM.
Regarding `C[C@@]1(c2cc(-c3cncnc3)c(F)cc2F)CCSC(N)=N1` [LY-2811376], the results for the inhibition in vivo at 90 mg/kg with Homo sapiens [4] and in the data set on Homo sapiens [5] were 80% and 64%, respectively. Besides, the inhibition in vivo at 5 mg/kg was found to be 85% in the data set on Canis familiaris [6], 43% in the data set on Canis familiaris [7] and 70% in the data set on Canis familiaris [8]. Besides, the half-life in data set [9] was 6.8 h. The values for the Drug uptake in the data set on Brain [10], in the data set on Brain [12] and with Brain [13] were 12.12 µg/g, 1.46 µg/g and 3.35 µg/g, respectively. The same compound came in with a concentration at 1 h in data set [11] of 1920 ng/mL. For the same compound, the INH in the data set filed under Sus scrofa turned out to be 32.6 µM; at Renin (Homo sapiens), 39 µM; in data set [14], 15.7 µM; in data set [15] it was 2.8 µM; in [16] it was 0.3 µM; in data set [3] it was 0.24 µM.
With `NC1=N[C@@]2(c3cc(NC(=O)c4ccc(F)cn4)ccc3F)COC[C@H]2CS1` [LY-2886721], in the data set with Homo sapiens [17], the inhibition in vivo at 35 mg/kg worked out at 60%. The inhibition in vivo at 15 mg/kg in the data set with Homo sapiens [18] turned out to be 30%.
Consider `C[C@@H](NC(=O)c1cc(C(=O)N[C@@H](Cc2ccccc2)[C@H](O)[C@@H]2NC(C)(C)N(Cc3ccccc3)C2=O)cc(N(C)S(C)(=O)=O)c1)c1ccc(F)cc1`, for which the INH in data set [19] stood at 0.03 µM.
Still for that read-out and setting: under `C[C@@H](NC(=O)c1cc(C(=O)N[C@@H](Cc2ccccc2)[C@H](O)[C@@H]2NC(C)(C)N(C)C2=O)cc(N(C)S(C)(=O)=O)c1)c1ccc(F)cc1` stands 18 µM.
Take `CC(C)C[C@H](NC(=O)[C@@H]1CC(=O)NCCCCCCOC(=O)N[C@@H](C(C)C)C(=O)N1)[C@@H](O)C[C@@H](C)C(=O)N[C@H](C(=O)NCc1ccccc1)C(C)C`: the INH in data set [20] stood at 0.0045 µM; in [19] it was 4 µM.
In the case of `C[C@@]1(c2cccc(-c3cncnc3)c2)CCSC(N)=N1`, the INH in data set [3] amounted to 0.92 µM.
`C[C@@H]1N[C@@H]([C@@H](O)[C@H](Cc2ccccc2)NC(=O)c2cc(C(=O)N[C@H](C)c3ccc(F)cc3)cc(N(C)S(C)(=O)=O)c2)C(=O)N1Cc1ccccc1` registered an INH in data set [19] of 0.028 µM.

(Values after ChEMBL document CHEMBL2396519, “Structure-based design of β-site APP cleaving enzyme 1 (BACE1) inhibitors for the treatment of Alzheimer's disease” (J Med Chem, 2013).)
